Results on 14 compounds are retold here after PubChem BioAssay (NCI).

Assay in all cases: inhibition of tumour cell growth, NCI panel, 48 h
Experiment [1] deals with SF-539 CNS.
In experiment [2] the test system is SN12C renal.
In experiment [3] the test system is CAKI-1 renal.
Experiment [4] has as its system UACC-257 melanoma.
Experiment [5] deals with SK-OV-3 ovarian.
The subject of experiment [6] is UACC-62 melanoma.
Experiment [7] relates to MALME-3M melanoma.
For experiment [8], the system named is HCC-2998 colon.

“And” between values parts separate entries of the source, which are not always exact repeats. Equal values may be shown once.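 Step 1: Grow cells in 96-well plates. Step 2: Expose to compound for 48 hours at 5 concentrations. Step 3: Interpolate endpoints linearly; if unreached, use highest concentration. Here, GI50 denotes the concentration required for 50% inhibition of growth. TGI denotes the concentration required for complete inhibition of growth.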

`Cn1c2ccccc2c2nnc(N/N=C/c3ccccn3)nc21`: the GI50 in experiment [1] is 0.284 µM; in experiment [2] it was 0.286 µM; in experiment [3], 0.264 µM; in experiment [4] it was 0.433 µM; in experiment [5], 0.421 µM; in experiment [6] it was 0.3 µM. Further, the GI50 in experiment [7] was 0.334 µM; in experiment [8], 0.529 µM. The TGI in experiment [1] is 0.854 µM; in experiment [3], 1.19 µM; in experiment [5] it was 21.9 µM; in experiment [6] it was 1.03 µM; in experiment [7], 2.26 µM; in experiment [8] it was greater than 63.8 µM.
Turning to `CCS(=O)(=O)c1ccc(OC)c(Nc2nccc(N(C)c3ccc4c(C)[nH]nc4c3)n2)c1`, the GI50 in experiment [1] is 4.17 µM; in experiment [2], 5.23 µM; in experiment [3], 3.75 µM; in experiment [4] it was 7.57 µM; in experiment [5] it was 5.03 µM; in experiment [6] it was 6.79 µM. Further, the values for the GI50 in experiment [7] and in experiment [8] were 8.48 µM and 8.18 µM, respectively. Also, the TGI in experiment [1] is 9.86 µM; in experiment [2], greater than 25 µM; in experiment [3], 12.3 µM; in experiment [4] it was greater than 24 µM; in experiment [5], 17.8 µM; in experiment [6] it was 24.5 µM. The TGI in experiment [7] and in experiment [8] was greater than 25 µM throughout.
For the compound `CCN(CC)CCCC(C)Nc1cnc(C(=O)Nc2cc(F)cc3cccnc23)cn1` (centres undefined), the GI50 is 10.3 µM and 1.52 µM in experiment [1]; 6.4 µM and 1.23 µM in experiment [2]; 2.89 µM and 2.05 µM in experiment [3]; 1.99 µM and 0.563 µM in experiment [4]; 14 µM and 1.68 µM in experiment [5]; 2.28 µM and 1.27 µM in experiment [6]. Besides, the GI50 in experiment [7] is 1.77 µM and 0.983 µM; in experiment [8], 5.01 µM and 1.53 µM. Besides, the TGI in experiment [1] was 22.2 µM and 2.89 µM; in experiment [2], 19.3 µM and 2.54 µM; in experiment [3], 15.4 µM and 5.71 µM; in experiment [4] it was 4.13 µM and 1.94 µM; in experiment [5], 27.7 µM and 3.68 µM; in experiment [6], 5.5 µM and 2.69 µM. The TGI in experiment [7] is 3.38 µM and 2.28 µM; in experiment [8], 18.4 µM and 2.97 µM.
On to `COc1ccc(C2=C(c3cn(C)c4ccccc34)C(=O)NC2=O)cc1OC`, for which the GI50 was 5.51 µM in experiment [1]; 8.91 µM in experiment [2]; 5.78 µM in experiment [3]; greater than 25 µM in experiment [4]; 6.72 µM in experiment [5]; 8.12 µM in experiment [6]. Also, the GI50 was greater than 25 µM in experiment [7] and greater than 22.3 µM in experiment [8]. Besides, the TGI in experiment [1] is greater than 18.1 µM; in experiment [2], greater than 25 µM; in experiment [3] it was greater than 25 µM; in experiment [4], greater than 25 µM; in experiment [5] it was greater than 25 µM; in experiment [6], greater than 25 µM. In addition, the TGI in experiment [7] and in experiment [8] was greater than 25 µM in each case.
As to `CCOC(=O)C(Cc1c[nH]c2cc([N+](=O)[O-])ccc12)(NC(C)=O)C(=O)OCC`, the GI50 in experiment [1] was 68.3 µM and 84.2 µM; in experiment [2], 401 µM; in experiment [3], 190 µM; in experiment [5], 184 µM; in experiment [7], 171 µM; in experiment [8], greater than 1000 µM. Besides, the TGI in experiment [1] is 330 µM; in experiment [2] it was greater than 1000 µM; in experiment [3] it was greater than 1000 µM; in experiment [4], greater than 1000 µM; in experiment [5], greater than 1000 µM; in experiment [6], greater than 1000 µM. The TGI in experiment [7] and in experiment [8] was greater than 1000 µM each time.
As to `CN1CCN(Cc2ccc(NC(=O)c3[nH]ncc3Nc3ncnc4c3CCC4)cc2)CC1`, the GI50 in experiment [1] is 0.52 µM; in experiment [2], 1.01 µM; in experiment [3], 2.73 µM; in experiment [4], 3.49 µM; in experiment [5], 0.185 µM; in experiment [6], 3.24 µM. In addition, the GI50 was 3.26 µM in experiment [7] and 3.02 µM in experiment [8]. In addition, the TGI in experiment [1] is 2.61 µM; in experiment [2], 20.2 µM; in experiment [3], 11.1 µM; in experiment [4], 15.4 µM; in experiment [5] it was 17.5 µM; in experiment [6], 13.5 µM. For the same compound, the TGI was 8.06 µM in experiment [7] and 11.6 µM in experiment [8].
As for `CN(C)CC#Cc1cccc(C(=O)c2cnn(-c3ccc(F)cc3)c2N)c1`, the GI50 in experiment [1], in experiment [2], in experiment [3], in experiment [4], in experiment [5] and in experiment [6] was greater than 25 µM each time. Moreover, the GI50 in experiment [7] and in experiment [8] was greater than 25 µM throughout. For the same compound, the TGI in experiment [1], in experiment [2], in experiment [3], in experiment [4], in experiment [5] and in experiment [6] was greater than 25 µM in each case. The TGI in experiment [7] and in experiment [8] was greater than 25 µM in each case.
On to `CCOc1cc2ncc(C#N)c(Nc3ccc(F)c(Cl)c3)c2cc1NC(=O)/C=C/CN(C)C`, for which the GI50 in experiment [1] is 0.826 µM; in experiment [2] it was 0.173 µM; in experiment [3] it was 0.0278 µM; in experiment [4], 1.27 µM; in experiment [5], 0.022 µM; in experiment [6] it was 0.449 µM. Further, the GI50 is 0.36 µM in experiment [7] and 1.13 µM in experiment [8]. The TGI was 2.31 µM in experiment [1]; greater than 6.03 µM in experiment [2]; 0.952 µM in experiment [3]; greater than 6.03 µM in experiment [4]; 0.139 µM in experiment [5]; greater than 5.09 µM in experiment [6]. The TGI in experiment [7] is 1.87 µM; in experiment [8], greater than 10 µM.
For the compound `COc1ccc(C(=O)c2cc(OC)c(OC)c(OC)c2)cc1O`, the GI50 in experiment [1] was 0.0112 µM; in experiment [2], 0.0668 µM; in experiment [3], 0.363 µM; in experiment [4], greater than 100 µM; in experiment [5] it was 0.395 µM; in experiment [6], 1.1 µM. The GI50 is greater than 100 µM in experiment [7] and 0.0832 µM in experiment [8]. Moreover, the TGI was 0.0557 µM in experiment [1]; greater than 100 µM in experiment [2]; greater than 100 µM in experiment [3]; greater than 100 µM in experiment [4]; greater than 100 µM in experiment [5]; greater than 100 µM in experiment [6]. For the same compound, the TGI in experiment [7] and in experiment [8] was greater than 100 µM in each case.
In the case of `O=C(Nc1ccncc1)C(=O)c1cn(S(=O)(=O)c2ccccc2F)c2ccccc12`, the GI50 was 1.19 µM in experiment [1]; 2.65 µM in experiment [2]; 2.43 µM in experiment [3]; 5.51 µM in experiment [4]; 12 µM in experiment [5]; 0.708 µM in experiment [6]. For the same compound, the figures for the GI50 in experiment [7] and in experiment [8] were 1.65 µM and 5.36 µM, respectively. Further, the TGI in experiment [1] was 7.88 µM; in experiment [2], greater than 90.6 µM; in experiment [3] it was greater than 70.8 µM; in experiment [4], greater than 78.4 µM; in experiment [5], 36.6 µM; in experiment [6] it was greater than 36.4 µM. Also, the TGI in experiment [7] and in experiment [8] was greater than 100 µM in each case.
For `CN(C)CCNC(=O)c1cc([N+](=O)[O-])ccn1`, the TGI was 59.4 µM in experiment [1]; 64 µM in experiment [2]; greater than 100 µM in experiment [3]; 29.8 µM in experiment [4]; greater than 100 µM in experiment [5]; 42.3 µM in experiment [6]. Moreover, the TGI in experiment [7] was 28 µM; in experiment [8], greater than 100 µM.
With `O=[N+]([O-])c1cc(Br)cc2c1[nH]c1ccc(Br)cc12`, the GI50 in experiment [1] was 12.2 µM; in experiment [2] it was 53.8 µM; in experiment [3] it was 2.23 µM; in experiment [4] it was 86 µM; in experiment [5] it was 3.59 µM; in experiment [6], 22.1 µM. The GI50 was 10.8 µM in experiment [7] and 9.86 µM in experiment [8]. Besides, the TGI in experiment [1] was 71.7 µM; in experiment [2], greater than 100 µM; in experiment [3], 11.9 µM; in experiment [4] it was greater than 100 µM; in experiment [5], 15.4 µM; in experiment [6] it was greater than 100 µM. For the same compound, the results for the TGI in experiment [7] and in experiment [8] were 66.3 µM and greater than 100 µM, respectively.
`Nc1ncc(-c2ccc(C(F)(F)F)cc2)c(NC2CCCCCC2)n1`: the GI50 in experiment [1] was 52.5 µM; in experiment [2], 29.4 µM; in experiment [3] it was 20.9 µM; in experiment [4] it was 22.3 µM; in experiment [5], greater than 100 µM; in experiment [6], 20.4 µM. In addition, the values for the GI50 in experiment [7] and in experiment [8] were 18.6 µM and 48.5 µM, respectively. Moreover, the TGI in experiment [1], in experiment [2], in experiment [3], in experiment [4], in experiment [5] and in experiment [6] was greater than 100 µM throughout. Moreover, the TGI in experiment [7] was 81.8 µM; in experiment [8] it was greater than 100 µM.
With `Cc1ccc2c(=O)[nH]sc2c1`, the TGI in experiment [1] was 26.9 µM; in experiment [2], 22.7 µM; in experiment [3], 17.8 µM; in experiment [4], 44.1 µM; in experiment [5] it was greater than 100 µM; in experiment [6] it was 41.2 µM. Moreover, the TGI in experiment [7] is 45.6 µM; in experiment [8], 36.9 µM.
